The source of these data is US11739098B2 (BRISTOL-MYERS SQUIBB COMPANY, priority 2017, dated 2023).

Some results are limits rather than exact numbers.

Common to all, as to type: cell-based
In one assay the target is T1, human TLR7 (Homo sapiens, UniProt Q9NYK1).
T1 construct: host or cells: HEK-Blue cells (HEK293-derived reporter line)
T1 sequence (Q9NYK1 27-1049): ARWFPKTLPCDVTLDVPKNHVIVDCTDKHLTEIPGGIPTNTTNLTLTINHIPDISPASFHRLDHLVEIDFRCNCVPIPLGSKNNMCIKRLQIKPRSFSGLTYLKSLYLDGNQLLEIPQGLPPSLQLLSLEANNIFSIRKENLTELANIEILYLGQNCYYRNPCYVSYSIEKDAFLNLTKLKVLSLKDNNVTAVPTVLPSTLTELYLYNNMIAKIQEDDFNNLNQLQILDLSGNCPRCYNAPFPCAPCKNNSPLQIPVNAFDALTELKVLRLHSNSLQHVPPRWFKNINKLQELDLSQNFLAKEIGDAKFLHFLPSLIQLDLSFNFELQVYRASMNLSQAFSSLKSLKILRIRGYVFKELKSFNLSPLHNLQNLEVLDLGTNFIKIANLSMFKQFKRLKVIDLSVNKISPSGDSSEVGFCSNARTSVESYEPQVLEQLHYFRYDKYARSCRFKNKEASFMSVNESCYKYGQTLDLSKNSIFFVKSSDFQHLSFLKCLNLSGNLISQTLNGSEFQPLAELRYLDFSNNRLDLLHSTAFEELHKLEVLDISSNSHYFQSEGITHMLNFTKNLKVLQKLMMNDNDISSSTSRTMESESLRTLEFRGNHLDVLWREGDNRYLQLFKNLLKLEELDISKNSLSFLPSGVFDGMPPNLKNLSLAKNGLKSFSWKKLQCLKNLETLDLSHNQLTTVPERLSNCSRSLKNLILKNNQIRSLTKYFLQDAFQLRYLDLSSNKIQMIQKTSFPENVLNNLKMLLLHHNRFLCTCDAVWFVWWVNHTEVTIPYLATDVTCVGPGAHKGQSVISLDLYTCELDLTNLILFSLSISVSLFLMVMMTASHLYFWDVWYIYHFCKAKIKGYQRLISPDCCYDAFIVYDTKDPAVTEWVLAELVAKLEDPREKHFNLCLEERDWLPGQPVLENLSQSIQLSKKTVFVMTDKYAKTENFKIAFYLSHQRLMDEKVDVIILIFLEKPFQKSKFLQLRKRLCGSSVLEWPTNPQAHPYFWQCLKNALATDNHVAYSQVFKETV
The assay can be described thus: TLR7 inhibition reporter assay (HEK-Blue cells, SEAP reporter, gardiquimod stimulation). The conditions noted are these: HEK-Blue cells overexpressing human TLR7, SEAP reporter, gardiquimod 7.5 μM. Summed up: (§1)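 After 22 h at 37 °C, SEAP secretion was measured from human TLR7-, TLR8- or TLR9-expressing HEK-Blue reporter cells given compound (0.05 nM–50 μM) 30 min before agonist: 7.5 μM gardiquimod, 15.9 μM R848 or 5 nM ODN2006 respectively. Percent inhibition referenced to agonist-plus-DMSO and known-inhibitor wells.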
On the technique in general: A reporter such as luciferase makes a cellular process visible.

The target in the next assay is T2, human TLR9 (Homo sapiens, UniProt Q9NR96).
T2 construct: host or cells: HEK-Blue cells (HEK293-derived reporter line)
T2 sequence (Q9NR96 26-1032): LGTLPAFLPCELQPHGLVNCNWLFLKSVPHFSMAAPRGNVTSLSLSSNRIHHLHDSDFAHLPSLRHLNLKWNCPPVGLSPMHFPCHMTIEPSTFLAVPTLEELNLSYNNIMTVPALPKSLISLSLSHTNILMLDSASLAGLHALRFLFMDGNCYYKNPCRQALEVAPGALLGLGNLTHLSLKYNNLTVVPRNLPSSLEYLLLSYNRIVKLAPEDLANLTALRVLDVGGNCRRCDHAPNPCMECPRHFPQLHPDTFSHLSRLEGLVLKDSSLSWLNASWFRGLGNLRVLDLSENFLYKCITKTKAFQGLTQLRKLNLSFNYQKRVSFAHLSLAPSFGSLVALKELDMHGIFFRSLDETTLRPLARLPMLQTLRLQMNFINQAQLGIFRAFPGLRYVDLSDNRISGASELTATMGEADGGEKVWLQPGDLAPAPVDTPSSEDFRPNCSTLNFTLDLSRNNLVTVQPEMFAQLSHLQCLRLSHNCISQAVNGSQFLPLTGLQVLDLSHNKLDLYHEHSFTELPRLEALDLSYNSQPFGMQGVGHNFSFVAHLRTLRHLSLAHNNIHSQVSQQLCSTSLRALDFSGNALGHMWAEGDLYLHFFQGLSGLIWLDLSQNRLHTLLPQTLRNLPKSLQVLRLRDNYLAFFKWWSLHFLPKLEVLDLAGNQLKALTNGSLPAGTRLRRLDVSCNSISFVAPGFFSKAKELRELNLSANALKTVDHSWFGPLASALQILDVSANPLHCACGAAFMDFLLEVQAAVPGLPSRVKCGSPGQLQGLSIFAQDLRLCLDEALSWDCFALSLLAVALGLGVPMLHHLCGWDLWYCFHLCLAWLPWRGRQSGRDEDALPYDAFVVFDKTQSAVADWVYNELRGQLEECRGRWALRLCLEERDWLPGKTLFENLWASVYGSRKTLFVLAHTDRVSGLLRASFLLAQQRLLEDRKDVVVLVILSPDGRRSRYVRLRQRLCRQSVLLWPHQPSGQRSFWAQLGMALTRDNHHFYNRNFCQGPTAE
Nature of the assay: TLR9 inhibition reporter assay (HEK-Blue cells, SEAP reporter, ODN2006 stimulation). The conditions noted are these: HEK-Blue cells overexpressing human TLR9, SEAP reporter, ODN2006 5 nM. The essentials: as §1

The target in another assay is T3, human TLR8 (Homo sapiens, UniProt Q9NR97).
T3 construct: host or cells: HEK-Blue cells (HEK293-derived reporter line)
T3 sequence (Q9NR97 27-1041): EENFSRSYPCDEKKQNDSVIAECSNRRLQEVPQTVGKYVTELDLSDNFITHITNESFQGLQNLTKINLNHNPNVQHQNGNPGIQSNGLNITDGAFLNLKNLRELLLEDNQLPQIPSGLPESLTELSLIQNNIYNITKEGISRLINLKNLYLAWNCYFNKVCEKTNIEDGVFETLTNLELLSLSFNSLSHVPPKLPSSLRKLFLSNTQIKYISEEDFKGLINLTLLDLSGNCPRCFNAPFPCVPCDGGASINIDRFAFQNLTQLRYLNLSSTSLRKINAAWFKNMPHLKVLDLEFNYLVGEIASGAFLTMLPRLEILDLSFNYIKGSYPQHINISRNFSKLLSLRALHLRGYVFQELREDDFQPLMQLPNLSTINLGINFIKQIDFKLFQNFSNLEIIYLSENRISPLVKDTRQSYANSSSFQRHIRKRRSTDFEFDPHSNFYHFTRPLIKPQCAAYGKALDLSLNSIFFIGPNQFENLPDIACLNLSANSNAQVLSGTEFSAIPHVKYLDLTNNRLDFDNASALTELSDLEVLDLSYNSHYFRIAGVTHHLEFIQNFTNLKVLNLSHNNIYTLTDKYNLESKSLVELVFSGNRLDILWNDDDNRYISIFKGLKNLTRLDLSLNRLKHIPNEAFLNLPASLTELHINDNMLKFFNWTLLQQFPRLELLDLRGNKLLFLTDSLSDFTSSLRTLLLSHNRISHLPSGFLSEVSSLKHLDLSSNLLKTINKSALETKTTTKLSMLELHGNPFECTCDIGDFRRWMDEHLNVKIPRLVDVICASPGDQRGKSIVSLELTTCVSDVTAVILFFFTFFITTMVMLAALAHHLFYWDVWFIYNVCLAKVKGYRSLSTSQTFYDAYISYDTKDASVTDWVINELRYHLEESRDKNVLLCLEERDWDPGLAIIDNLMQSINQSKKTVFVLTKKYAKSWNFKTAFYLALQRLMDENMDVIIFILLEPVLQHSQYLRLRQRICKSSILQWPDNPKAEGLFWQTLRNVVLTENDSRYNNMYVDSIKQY
Nature of the assay: TLR8 inhibition reporter assay (HEK-Blue cells, SEAP reporter, R848 stimulation). The conditions noted are these: HEK-Blue cells overexpressing human TLR8, SEAP reporter, R848 15.9 μM. Summed up:
as §1

`CNC(=O)CN1CCC(c2ccc3[nH]c(-c4cc(OC)c5nccn5c4)c(C(C)C)c3c2)CC1` [Example 434, 2-(4-(3-isopropyl-2-(8-methoxyimidazo[1,2-a]pyridin-6-yl)-1H-indol-5-yl)piperidin-1-yl)-N-methylacetamide]: the 50% inhibitory concentration (IC50) was < 100 nM against human TLR7, 100 to 1000 nM on human TLR9 and < 100 nM at human TLR8.

For the compound `Cc1cc(-c2[nH]c3ccc(C4CCN(CC(=O)N(C)C)CC4)cc3c2C(C)C)cc2cccnc12` [Example 435, 2-(4-(3-isopropyl-2-(8-methylquinolin-6-yl)-1H-indol-5-yl)piperidin-1-yl)-N,N-dimethylacetamide], the IC50 against human TLR7 was < 100 nM; against human TLR9 it was 1000 to 50000 nM; against human TLR8, < 100 nM.

As for `Cc1cc(-c2[nH]c3ccc(C4CCN(CC(N)=O)CC4)cc3c2C(C)C)cc2cccnc12` [Example 436, 2-(4-(3-isopropyl-2-(8-methylquinolin-6-yl)-1H-indol-5-yl)piperidin-1-yl)acetamide], the IC50 on human TLR7 was < 100 nM; on human TLR9, 1000 to 50000 nM; against human TLR8 it was < 100 nM.

Regarding `CNC(=O)CN1CCC(c2ccc3[nH]c(-c4cc(C)c5ncccc5c4)c(C(C)C)c3c2)CC1` [Example 437, 2-(4-(3-isopropyl-2-(8-methylquinolin-6-yl)-1H-indol-5-yl)piperidin-1-yl)-N-methylacetamide], the concentration for half-maximal inhibition (IC50) against human TLR7 is < 100 nM; at human TLR9 it was 1000 to 50000 nM; against human TLR8, < 100 nM.

For the compound `Cc1cc2nc(-c3[nH]c4ccc(C5CCN(CC(=O)N(C)C)CC5)cc4c3C(C)C)c(F)cn2n1` [Example 438, 2-(4-(2-(6-fluoro-2-methylpyrazolo[1,5-a]pyrimidin-5-yl)-3-isopropyl-1H-indol-5-yl)piperidin-1-yl)-N,N-dimethylacetamide], the results for the IC50 against human TLR7, against human TLR9 and on human TLR8 were 100 to 1000 nM, 1000 to 50000 nM and 100 to 1000 nM, respectively.

In the case of `Cc1cc(-c2[nH]c3ccc(C4CCN(CC(=O)N(C)C)CC4)cc3c2C(C)C)cc2cncn12` [Example 439, 2-(4-(3-isopropyl-2-(5-methylimidazo[1,5-a]pyridin-7-yl)-1H-indol-5-yl)piperidin-1-yl)-N,N-dimethylacetamide], the results for the IC50 at human TLR7, at human TLR9 and against human TLR8 were < 100 nM, 1000 to 50000 nM and < 100 nM, respectively.

Consider `CNC(=O)CN1CCC(c2ccc3[nH]c(-c4cc(C)n5cncc5c4)c(C(C)C)c3c2)CC1` [Example 440, 2-(4-(3-isopropyl-2-(5-methylimidazo[1,5-a]pyridin-7-yl)-1H-indol-5-yl)piperidin-1-yl)-N-methylacetamide], for which the values for the IC50 against human TLR7, at human TLR9 and against human TLR8 were < 100 nM, 100 to 1000 nM and < 100 nM, respectively.

Take `CC(C)c1c(-c2ccn3nccc3c2)[nH]c2ccc(C3CCN(CC(=O)N(C)C)CC3)cc12` [Example 441, 2-(4-(3-isopropyl-2-(pyrazolo[1,5-a]pyridin-5-yl)-1H-indol-5-yl)piperidin-1-yl)-N,N-dimethylacetamide]: the IC50 was < 100 nM on human TLR7, 1000 to 50000 nM on human TLR9 and < 100 nM against human TLR8.

With `Cc1cc(-c2[nH]c3ccc(C4CCN(CC(=O)N(C)C)CC4)cc3c2C(C)C)cc2ccnn12` [Example 442, 2-(4-(3-isopropyl-2-(7-methylpyrazolo[1,5-a]pyridin-5-yl)-1H-indol-5-yl)piperidin-1-yl)-N,N-dimethylacetamide], the IC50 on human TLR7 was < 100 nM; at human TLR9, 1000 to 50000 nM; on human TLR8, < 100 nM.

`CNC(=O)CN1CCC(c2ccc3[nH]c(-c4cc(C)n5nccc5c4)c(C(C)C)c3c2)CC1` [Example 443, 2-(4-(3-isopropyl-2-(7-methylpyrazolo[1,5-a]pyridin-5-yl)-1H-indol-5-yl)piperidin-1-yl)-N-methylacetamide]: the IC50 against human TLR7 is < 100 nM; at human TLR9 it was 1000 to 50000 nM; at human TLR8 it was < 100 nM.

With `CC(C)c1c(-c2ccc3nccn3c2)[nH]c2ccc(C3CCN(CC(=O)N(C)C)CC3)cc12` [Example 444, 2-(4-(2-(imidazo[1,2-a]pyridin-6-yl)-3-isopropyl-1H-indol-5-yl)piperidin-1-yl)-N,N-dimethylacetamide], the IC50 was < 100 nM at human TLR7, 100 to 1000 nM at human TLR9 and < 100 nM against human TLR8.

As for `CN(C)C(=O)CN1CCC(c2ccc3[nH]c(-c4ccn5ccnc5c4)c(CC(F)F)c3c2)CC1` [Example 445, 2-(4-(3-(2,2-difluoroethyl)-2-(imidazo[1,2-a]pyridin-7-yl)-1H-indol-5-yl)piperidin-1-yl)-N,N-dimethylacetamide], the results for the IC50 on human TLR7, at human TLR9 and on human TLR8 were < 100 nM, 1000 to 50000 nM and 100 to 1000 nM, respectively.

On to `CNC(=O)CN1CCC(c2ccc3[nH]c(-c4ccn5ccnc5c4)c(CC(F)F)c3c2)CC1` [Example 446, 2-(4-(3-(2,2-difluoroethyl)-2-(imidazo[1,2-a]pyridin-7-yl)-1H-indol-5-yl)piperidin-1-yl)-N-methylacetamide], for which the IC50 against human TLR7 is < 100 nM; at human TLR9, 100 to 1000 nM; at human TLR8, 100 to 1000 nM.

A word on the IC50: it is the midpoint of a concentration-inhibition curve.
